# Source: patent US20220071996A1, “ORAL FORMULATIONS OF BRANAPLAM” (NOVARTIS AG, priority 2018, published 2022)
# Like-named read-outs stand apart in the source and are kept apart here.
# Assay: solubility of branaplam in selected excipients
# Format: physicochemical
# Settings: pH 4, aqueous with cosolvent or surfactant or cyclodextrin, thermodynamic from solid
# Procedure: (§1) Solubility of branaplam was evaluated in excipients, other than cyclodextrin, such as Cremophor RH40, Tween 80, PG, PEG300, and glycerol. These excipients and concentrations were selected as they are suitable for paediatric formulations. None of the tested excipients was able to support development of a formulation comprising branaplam at a concentration high enough (i.e. about 2 mg/ml or higher) to keep the dose volume in a suitable range (Table 6).
# as §1, with “5a).” for “6).”
# Solubility of branaplam was measured as follows: stock solutions for the excipients at target concentrations were prepared using milli-Q water and adjusted using pH 4.0 buffer. […] Suspensions were stirred for 24 hours (using a magnetic stirrer) ensuring sufficient swirling and monitoring the temperature. The suspensions were filtered through 0.45 μm nominal pore size filter (e.g. using a PES syringe), and the concentration of branaplam in the filtrate was measured using HPLC (high performance liquid chromatography). The measurements were performed in duplicate and average of the values are reported.
smiles,measurement,setting,value
"CC1(C)CC(Oc2ccc(-c3ccc(-c4cn[nH]c4)cc3O)nn2)CC(C)(C)N1 [branaplam, 5-(1H-pyrazol-4-yl)-2-(6-((2,2,6,6-tetramethylpiperidin-4-yl)oxy)pyridazin-3-yl)phenol]",solubility at 24 h,"aqueous excipient stock solution, 2 °C, in Cremophor RH 40 1.0% (w/w), 2-8° C., read-out: Solubility (mg/mL) 2-8° C.",0.17 mg/mL
same,solubility at 24 h,"aqueous excipient stock solution, 2 °C, in Cremophor RH 40 3.5% (w/w), 2-8° C., read-out: Solubility (mg/mL) 2-8° C.",0.44 mg/mL
same,solubility at 24 h,"aqueous excipient stock solution, 2 °C, in Cremophor RH 40 7.0% (w/w), 2-8° C., read-out: Solubility (mg/mL) 2-8° C.",0.71 mg/mL
same,solubility at 24 h,"aqueous excipient stock solution, 2 °C, in Cremophor RH 40 15.0% (w/w), 2-8° C., read-out: Solubility (mg/mL) 2-8° C.",1.19 mg/mL
same,solubility at 24 h,"aqueous excipient stock solution, 2 °C, in Glycerol 5.0% (w/v), pH 4.0 buffer, 2-8° C., read-out: Solubility (mg/mL) 2-8° C.",0.2 mg/mL
same,solubility at 24 h,"aqueous excipient stock solution, 2 °C, in Glycerol 10.0% (w/v), pH 4.0 buffer, 2-8° C., read-out: Solubility (mg/mL) 2-8° C.",0.19 mg/mL
same,solubility at 24 h,"aqueous excipient stock solution, 2 °C, in Glycerol 25.0% (w/w), 2-8° C., read-out: Solubility (mg/mL) 2-8° C.",0.37 mg/mL
same,solubility at 24 h,"aqueous excipient stock solution, 2 °C, in PEG 300 5.0% (w/v), pH 4.0 buffer, 2-8° C., read-out: Solubility (mg/mL) 2-8° C.",0.27 mg/mL
same,solubility at 24 h,"aqueous excipient stock solution, 2 °C, in PEG 300 10.0% (w/v), pH 4.0 buffer, 2-8° C., read-out: Solubility (mg/mL) 2-8° C.",0.34 mg/mL
same,solubility at 24 h,"aqueous excipient stock solution, 2 °C, in PEG 300 25.0% (w/v), pH 4.0 buffer, 2-8° C., read-out: Solubility (mg/mL) 2-8° C.",0.87 mg/mL
same,solubility at 24 h,"aqueous excipient stock solution, 2 °C, in PEG 400 5.0% (w/v), pH 4.0 buffer, 2-8° C., read-out: Solubility (mg/mL) 2-8° C.",0.21 mg/mL
same,solubility at 24 h,"aqueous excipient stock solution, 2 °C, in PEG 400 10.0% (w/v), pH 4.0 buffer, 2-8° C., read-out: Solubility (mg/mL) 2-8° C.",0.45 mg/mL
same,solubility at 24 h,"aqueous excipient stock solution, 2 °C, in PEG 400 25.0% (w/v), pH 4.0 buffer, 2-8° C., read-out: Solubility (mg/mL) 2-8° C.",0.93 mg/mL
same,solubility at 24 h,"aqueous excipient stock solution, 2 °C, in Propylene glycol 5.0% (w/v), pH 4.0 buffer, 2-8° C., read-out: Solubility (mg/mL) 2-8° C.",0.16 mg/mL
same,solubility at 24 h,"aqueous excipient stock solution, 2 °C, in Propylene glycol 10.0% (w/v), pH 4.0 buffer, 2-8° C., read-out: Solubility (mg/mL) 2-8° C.",0.18 mg/mL
same,solubility at 24 h,"aqueous excipient stock solution, 2 °C, in Propylene glycol 25.0% (w/v), pH 4.0 buffer, 2-8° C., read-out: Solubility (mg/mL) 2-8° C.",0.42 mg/mL
same,solubility at 24 h,"aqueous excipient stock solution, 2 °C, in Tween 80 0.5% (w/v), pH 4.0 buffer, 2-8° C., read-out: Solubility (mg/mL) 2-8° C.",0.16 mg/mL
same,solubility at 24 h,"aqueous excipient stock solution, 2 °C, in Tween 80 0.8% (w/v), pH 4.0 buffer, 2-8° C., read-out: Solubility (mg/mL) 2-8° C.",0.22 mg/mL
same,solubility at 24 h,"aqueous excipient stock solution, 2 °C, in Tween 80 1.5% (w/v), pH 4.0 buffer, 2-8° C., read-out: Solubility (mg/mL) 2-8° C.",0.29 mg/mL
same,solubility at 24 h,"aqueous excipient stock solution, 2 °C, in Tween 80 5.0% (w/v), pH 4.0 buffer, 2-8° C., read-out: Solubility (mg/mL) 2-8° C.",0.73 mg/mL
same,solubility at 24 h,"aqueous excipient stock solution, 25 °C, in Cremophor RH 40 1.0% (w/w), RT, read-out: Solubility (mg/mL) RT",0.28 mg/mL
same,solubility at 24 h,"aqueous excipient stock solution, 25 °C, in Cremophor RH 40 3.5% (w/w), RT, read-out: Solubility (mg/mL) RT",0.53 mg/mL
same,solubility at 24 h,"aqueous excipient stock solution, 25 °C, in Cremophor RH 40 7.0% (w/w), RT, read-out: Solubility (mg/mL) RT",0.84 mg/mL
same,solubility at 24 h,"aqueous excipient stock solution, 25 °C, in Cremophor RH 40 15.0% (w/w), RT, read-out: Solubility (mg/mL) RT",1.32 mg/mL
same,solubility at 24 h,"aqueous excipient stock solution, 25 °C, in Glycerol 5.0% (w/v), pH 4.0 buffer, RT, read-out: Solubility (mg/mL) RT",0.18 mg/mL
same,solubility at 24 h,"aqueous excipient stock solution, 25 °C, in Glycerol 10.0% (w/v), pH 4.0 buffer, RT, read-out: Solubility (mg/mL) RT",0.22 mg/mL
same,solubility at 24 h,"aqueous excipient stock solution, 25 °C, in Glycerol 25.0% (w/w), RT, read-out: Solubility (mg/mL) RT",0.38 mg/mL
same,solubility at 24 h,"aqueous excipient stock solution, 25 °C, in PEG 300 5.0% (w/v), pH 4.0 buffer, RT, read-out: Solubility (mg/mL) RT",0.39 mg/mL
same,solubility at 24 h,"aqueous excipient stock solution, 25 °C, in PEG 300 10.0% (w/v), pH 4.0 buffer, RT, read-out: Solubility (mg/mL) RT",0.64 mg/mL
same,solubility at 24 h,"aqueous excipient stock solution, 25 °C, in PEG 300 25.0% (w/v), pH 4.0 buffer, RT, read-out: Solubility (mg/mL) RT",1.61 mg/mL
same,solubility at 24 h,"aqueous excipient stock solution, 25 °C, in PEG 400 5.0% (w/v), pH 4.0 buffer, RT, read-out: Solubility (mg/mL) RT",0.39 mg/mL
same,solubility at 24 h,"aqueous excipient stock solution, 25 °C, in PEG 400 10.0% (w/v), pH 4.0 buffer, RT, read-out: Solubility (mg/mL) RT",0.63 mg/mL
same,solubility at 24 h,"aqueous excipient stock solution, 25 °C, in PEG 400 25.0% (w/v), pH 4.0 buffer, RT, read-out: Solubility (mg/mL) RT",1.47 mg/mL
same,solubility at 24 h,"aqueous excipient stock solution, 25 °C, in Propylene glycol 5.0% (w/v), pH 4.0 buffer, RT, read-out: Solubility (mg/mL) RT",0.27 mg/mL
same,solubility at 24 h,"aqueous excipient stock solution, 25 °C, in Propylene glycol 10.0% (w/v), pH 4.0 buffer, RT, read-out: Solubility (mg/mL) RT",0.37 mg/mL
same,solubility at 24 h,"aqueous excipient stock solution, 25 °C, in Propylene glycol 25.0% (w/v), pH 4.0 buffer, RT, read-out: Solubility (mg/mL) RT",0.94 mg/mL
same,solubility at 24 h,"aqueous excipient stock solution, 25 °C, in Tween 80 0.5% (w/v), pH 4.0 buffer, RT, read-out: Solubility (mg/mL) RT",0.25 mg/mL
same,solubility at 24 h,"aqueous excipient stock solution, 25 °C, in Tween 80 0.8% (w/v), pH 4.0 buffer, RT, read-out: Solubility (mg/mL) RT",0.28 mg/mL
same,solubility at 24 h,"aqueous excipient stock solution, 25 °C, in Tween 80 1.5% (w/v), pH 4.0 buffer, RT, read-out: Solubility (mg/mL) RT",0.41 mg/mL
same,solubility at 24 h,"aqueous excipient stock solution, 25 °C, in Tween 80 5.0% (w/v), pH 4.0 buffer, RT, read-out: Solubility (mg/mL) RT",0.89 mg/mL
same,solubility at 24 h,"glycerol 25.0% (w/v) aqueous solution in pH 4.0 buffer, 2 °C, in Glycerol 25.0% (w/v), pH 4.0 buffer, 2-8° C., read-out: Solubility (mg/mL) 2-8° C.",0.37 mg/mL
same,solubility at 24 h,"glycerol 25.0% (w/v) aqueous solution in pH 4.0 buffer, 25 °C, in Glycerol 25.0% (w/v), pH 4.0 buffer, RT, read-out: Solubility (mg/mL) RT",0.38 mg/mL
